Patent US5164507A, “Antibiotic pyridine compound” (Meiji Seika Kaisha Ltd., priority 1990, dated 1992)
Structures can show the parent of a compound that is named as a salt.

Experiments:
Candida utilis M9007 = test: MIC (minimum growth inhibitory concentration) on test microorganisms; type: cell-based; conditions: Williopsis jadinii
Excerpt: (§1) Minimum growth inhibitory concentrations (MIC) of a hydrochloride of substance SF 2698 on various test microorganisms are shown in Table 1 below.

[1] = tested on: Candida glabrata IFO-0005; test: as above; type: cell-based; conditions: Nakaseomyces glabratus, IFO0005
Excerpt: as §1

[2] = tested on: Cryptococcus neoformans M9010; test: as above; type: cell-based
Excerpt: as §1

Candida albicans M9001 = test: as above; type: cell-based
Excerpt: as §1

[3] = tested on: Candida glabrata IFO-0622; test: as above; type: cell-based; conditions: Nakaseomyces glabratus, IFO0622
Excerpt: as §1

mice = test: toxicity by intravenous injection to mice; type: in vivo; conditions: dose of 100 mg/kg
Excerpt: Further, toxicity of a hydrochloride of substance SF2698 was examined by administering to mice the test compound by intravenous injection.

Solubility = type: physicochemical
eumycetes = test: antimicrobial activity (Table 1, summary); type: cell-based; conditions: against certain kinds of eumycetes, from Table 1
Excerpt: as §1

For `N=C1C=CCC(C(=O)O)N1` (stereo not shown) [hydrochloride of substance SF 2698], which MIC (Candida utilis M9007) is on record?
The MIC was 12.5 µg/mL.

And the MIC [1]?
The MIC was 0.2 µg/mL.

And the MIC [2]?
The MIC was over 100 µg/mL.

What about the MIC (Candida albicans M9001) of the same molecule?
Its MIC is over 100 µg/mL.

What about the MIC [3] of the same molecule?
Its MIC is 0.78 µg/mL.

And the case of death (mice)?
The case of death was “no case of death”.

What about the Solubility (Solubility; in methanol) of the same molecule?
Its Solubility is “soluble”.

What about the Solubility (Solubility; in organic solvents, e.g., ethyl acetate) of the same molecule?
Its Solubility is “insoluble”.

And the Solubility (Solubility; in water)?
Its Solubility is “soluble”.

What about the antimicrobial activity (eumycetes) of the same molecule?
Its antimicrobial activity is “exhibits antimicrobial activity against certain kinds of eumycetes”.
